From ChEMBL document CHEMBL3352061, “Novel amino-β-lactam derivatives as potent cholesterol absorption inhibitors” (Eur J Med Chem, 2014) come the findings set out here.

One may read the IC50 as the concentration at which inhibition is half-maximal. Higher therefore signals weaker potency in that assay.

The nature of series [1]: Inhibition of cholesterol uptake in MDCK2 cells expressing human NPC1L1 after 1 hr by liquid scintillation counting. The series is classed as cell-based. As to conditions: Canis lupus familiaris, MDCK-II; call rule not given here.
A short description of series [2]: Inhibition of cholesterol uptake in MDCK2 cells at 20 to 100 uM after 1 hr by liquid scintillation counting. It is filed as cell-based, Canis lupus familiaris. As to conditions: dog, mdck-ii.
Series [3] in a line: Inhibition of cholesterol uptake in MDCK2 cells expressing human NPC1L1 at 20 to 100 uM after 1 hr by liquid scintillation counting. The series is classed as cell-based, Canis lupus familiaris. As to conditions: dog, mdck-ii.

In series [1], `O=C1[C@H](NC[C@H](O)c2ccc(F)cc2)[C@@H](c2ccc(O)cc2)N1c1ccc(F)cc1` registered an IC50 of 80 µM.

In series [1], `O=C1[C@H](NC[C@@H](O)c2ccc(F)cc2)[C@@H](c2ccc(O)cc2)N1c1ccc(F)cc1` registered a 50% inhibitory concentration (IC50) of 60 µM. The IC50 values of the last two compounds are within 1.5-fold of each other. Turning to `O=C1[C@H](CC[C@H](O)c2ccc(F)cc2)[C@@H](c2ccc(O)cc2)N1c1ccc(F)cc1` [EZETIMIBE], the entries for the “inhibition (INH)” value in series [2] and in series [3] were “Not Active” and “Active”, respectively.
